Assay results published in patent publication US7713994B2 (Wyeth LLC, priority 2005, dated 2010).

Biological target: T1, cyclin D1/cdk 4 enzyme (Homo sapiens, UniProt P11802)
T1 construct: made in house; host or cells: Sf9 insect cells, recombinant baculovirus
Assay: CDK4 ELISA kinase assay (phospho-Rb ser 795 detection)
Type: biochemical
Details: In Vitro Enzyme Assay, cyclin D1/cdk 4, read-out: CDK4 IC50
Method in brief: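 ELISA format: plate-bound GST-Rb, 200 μM ATP, Sf9 cyclin/CDK enzyme, 1 h at 30° C; then anti-pRb Ser795 primary overnight at 4° C, HRP secondary, TMB. IC50 after no-substrate background subtraction.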

T1 sequence (P11802 whole entry, species assumed): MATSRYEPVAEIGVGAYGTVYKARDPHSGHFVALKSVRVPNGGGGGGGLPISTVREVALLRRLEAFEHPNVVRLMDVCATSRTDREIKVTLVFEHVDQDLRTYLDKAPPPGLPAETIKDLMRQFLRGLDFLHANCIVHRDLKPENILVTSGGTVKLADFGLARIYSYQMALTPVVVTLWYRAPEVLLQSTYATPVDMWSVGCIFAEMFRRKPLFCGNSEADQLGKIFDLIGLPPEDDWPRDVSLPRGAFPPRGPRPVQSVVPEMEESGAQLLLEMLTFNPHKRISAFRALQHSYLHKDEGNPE
T1 sequence (P24385 whole entry partner, species assumed): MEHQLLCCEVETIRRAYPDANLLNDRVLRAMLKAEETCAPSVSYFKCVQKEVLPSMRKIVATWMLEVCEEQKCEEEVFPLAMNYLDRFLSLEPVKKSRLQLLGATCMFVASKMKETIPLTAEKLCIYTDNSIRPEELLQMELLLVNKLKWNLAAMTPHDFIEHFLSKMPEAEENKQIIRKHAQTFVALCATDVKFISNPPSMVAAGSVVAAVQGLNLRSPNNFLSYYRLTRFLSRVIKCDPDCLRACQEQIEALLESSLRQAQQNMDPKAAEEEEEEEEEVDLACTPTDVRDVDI

Molecule | IC50
O=C1NC(=O)c2ccccc2C1=CNCc1cccc(NS(=O)(=O)CC(F)(F)F)c1 [Example 582, 2,2,2-Trifluoro-ethanesulfonic acid (3-{[(1,3-dioxo-2,3-dihydro-1H-isoquinolin-4-ylidenemethyl)-amino]-methyl}-phenyl)-amide] | 9.6 µM
Nc1cccc(CNC=C2C(=O)NC(=O)c3ccccc32)c1 [Example 573, 4-[(3-Amino-benzylamino)-methylene]-4H-isoquinoline-1,3-dione] | 30.6 µM
O=C1NC(=O)c2ccccc2C1=CNc1ccc(N2CCN(CCN3CCCC3)CC2)cc1 [Example 572, 4-({4-[4-(2-Pyrrolidin-1-yl-ethyl)-piperazin-1-yl]-phenylamino}-methylene)-4H-isoquinoline-1,3-dione] | 37 µM
O=C1NC(=O)c2ccccc2C1=CNCc1ccc(NS(=O)(=O)Cc2ccccc2)cc1 [Example 590, N-(4{[(1,3-Dioxo-2,3-dihydro-1H-isoquinolin-4-ylidenemethyl)-amino]-methyl}-phenyl)-C-phenyl-methanesulfonamide] | 38.5 µM
6-[2-(4-Fluoro-phenyl)-vinyl]-4-{[4-(4-methyl-piperazin-1-yl)-phenylamino]-methylene}-4H-isoquinoline-1,3-dione [Example 731] | 45.2 µM
O=C1NC(=O)c2ccccc2C1=CNCc1ccc(S(=O)(=O)NCc2cccnc2)cc1 [Example 607, 4-{[(1,3-Dioxo-2,3-dihydro-1H-isoquinolin-4-ylidenemethyl)-amino]-methyl}-N-pyridin-3-ylmethyl-benzenesulfonamide] | 45.5 µM
N#CCN1CCN(c2ccc(N/C=C3\C(=O)NC(=O)c4ccccc43)cc2)CC1 [Example 596, (4-{4-[(1,3-Dioxo-2,3-dihydro-1H-isoquinolin-4-ylidenemethyl)-amino]-phenyl}-piperazin-1-yl)-acetonitrile] | 27.7 µM
CCN1CCN(c2ccc(NC=C3C(=O)NC(=O)c4ccccc43)cc2)CC1 [Example 595, 4-{[4-(4-Ethyl-piperazin-1-yl)-phenylamino]-methylene}-4H-isoquinoline-1,3-dione] | 27.4 µM
O=C1NC(=O)c2ccccc2C1=CNc1ccc(CNS(=O)(=O)CC(F)(F)F)cc1 [Example 605, 2,2,2-Trifluoro-ethanesulfonic acid 4-[(1,3-dioxo-2,3-dihydro-1H-isoquinolin-4-ylidenemethyl)-amino]-benzylamide] | 22.1 µM
4-({[6-(3-Cyano-phenyl)-1,3-dioxo-2,3-dihydro-1H-isoquinolin-4-ylidenemethyl]-amino}-methyl)-benzenesulfonamide [Example 756] | 20.2 µM
O=C1NC(=O)c2ccccc2C1=CNNc1cccc(C(=O)O)c1 [Example 552, 3-[N′-(1,3-Dioxo-2,3-dihydro-1H-isoquinolin-4-ylidenemethyl)-hydrazino]-benzoic acid] | 32.2 µM
CCNS(=O)(=O)c1ccc(CN/C=C2\C(=O)NC(=O)c3ccccc32)cc1 [Example 606, 4-{[(1,3-Dioxo-2,3-dihydro-1H-isoquinolin-4-ylidenemethyl)-amino]-methyl}-N-ethyl-benzenesulfonamide] | 21.2 µM
O=C1NC(=O)c2ccccc2C1=CNCc1ccc(NS(=O)(=O)c2cccs2)cc1 [Example 588, Thiophene-2-sulfonic acid (4-{[(1,3-dioxo-2,3-dihydro-1H-isoquinolin-4-ylidenemethyl)-amino]-methyl}-phenyl)-amide] | 37.3 µM
CCCS(=O)(=O)Nc1cccc(CNC=C2C(=O)NC(=O)c3ccccc32)c1 [Example 584, Propane-1-sulfonic acid (3-{[(1,3-dioxo-2,3-dihydro-1H-isoquinolin-4-ylidenemethyl)-amino]-methyl}-phenyl)-amide] | 19.4 µM
O=C1NC(=O)c2ccc(C=CCc3ccccc3)cc2C1=CNc1ccc(CN2CCCC2)cc1 [Example 622, 6-(3-Phenyl-propenyl)-4-[(4-pyrrolidin-1-ylmethyl-phenylamino)-methylene]-4H-isoquinoline-1,3-dione] | 37.2 µM
Cc1nnc(NS(=O)(=O)c2ccc(NC=C3C(=O)NC(=O)c4ccccc43)cc2)s1 [Example 549, 4-[(1,3-Dioxo-2,3-dihydro-1H-isoquinolin-4-ylidenemethyl)-amino]-N-(5-methyl-[1,3,4]thiadiazol-2-yl)-benzenesulfonamide] | 40.2 µM
O=C1NC(=O)c2ccccc2C1=CNc1ccc(N2CCN(CCN3CCOCC3)CC2)cc1 [Example 571, 4-({4-[4-(2-Morpholin-4-yl-ethyl)-piperazin-1-yl]-phenylamino}-methylene)-4H-isoquinoline-1,3-dione] | 33.8 µM
O=C1NC(=O)c2ccccc2C1=CNc1ccc(O)cc1 [Example 559, 4-[(4-Hydroxy-phenylamino)-methylene]-4H-isoquinoline-1,3-dione] | 19.3 µM

Second part, the molecule after the results:

IC50 | Molecule
1.7 µM | NS(=O)(=O)c1ccc(CNC=C2C(=O)NC(=O)c3ccc(-c4ccc(C=CC(=O)O)cc4)cc32)cc1 [Example 759, 3-(4-{1,3-Dioxo-4-[(4-sulfamoyl-benzylamino)-methylene]-1,2,3,4-tetrahydro-isoquinolin-6-yl}-phenyl)-acrylic acid]
14.5 µM | CN1CCN(c2ccc(NC=C3C(=O)NC(=O)c4ccc(-c5ccc(N(C)C)cc5)cc43)cc2)CC1 [Example 807, 6-(4-Dimethylamino-phenyl)-4-{[4-(4-methyl-piperazin-1-yl)-phenylamino]-methylene}-4H-isoquinoline-1,3-dione]
20.9 µM | CN1CCN(c2ccc(NC=C3C(=O)NC(=O)c4ccc(-c5ccc(C(F)(F)F)cc5)cc43)cc2)CC1 [Example 687, 4-{[4-(4-Methyl-piperazin-1-yl)-phenylamino]-methylene}-6-(4-trifluoromethyl-phenyl)-4H-isoquinoline-1,3-dione]
2.75 µM | COc1ccc(-c2ccc3c(c2)C(=CNCc2ccc(O)c(O)c2)C(=O)NC3=O)c(OC)c1 [Example 814, 4-[(3,4-Dihydroxy-benzylamino)-methylene]-6-(2,4-dimethoxy-phenyl)-4H-isoquinoline-1,3-dione]
48.6 µM | NS(=O)(=O)c1ccc(CNC=C2C(=O)NC(=O)c3ccc(-c4cccc(C(F)(F)F)c4)cc32)cc1 [Example 744, 4-({[1,3-Dioxo-6-(3-trifluoromethyl-phenyl)-2,3-dihydro-1H-isoquinolin-4-ylidenemethyl]-amino}-methyl)-benzenesulfonamide]
27.3 µM | CN1CCN(c2ccc(NC=C3C(=O)NC(=O)c4ccc(-c5ccc(-c6ccccc6)cc5)cc43)cc2)CC1 [Example 696, 6-Biphenyl-4-yl-4-{[4-(4-methyl-piperazin-1-yl)-phenylamino]-methylene}-4H-isoquinoline-1,3-dione]
10 µM | N#CCc1ccc(NC=C2C(=O)NC(=O)c3ccc(-c4cccc(C(=O)O)c4)cc32)cc1 [Example 708, 3-{4-[(4-Cyanomethyl-phenylamino)-methylene]-1,3-dioxo-1,2,3,4-tetrahydro-isoquinolin-6-yl}-benzoic acid]
2.5 µM | O=C1NC(=O)c2ccc(C=CCN3CCNCC3)cc2C1=CNCc1ccc(O)c(O)c1 [Example 666, 4-[(3,4-Dihydroxy-benzylamino)-methylene]-6-(3-piperazin-1-yl-propenyl)-4H-isoquinoline-1,3-dione]
12.6 µM | N#CCc1ccc(NC=C2C(=O)NC(=O)c3ccc(-c4cccc(F)c4)cc32)cc1 [Example 705, (4-{[6-(3-Fluoro-phenyl)-1,3-dioxo-2,3-dihydro-1H-isoquinolin-4-ylidenemethyl]-amino}-phenyl)-acetonitrile]
25.7 µM | Cc1cccc(-c2ccc3c(c2)C(=CNc2ccc(N4CCN(C)CC4)cc2)C(=O)NC3=O)c1 [Example 693, 4-{[4-(4-Methyl-piperazin-1-yl)-phenylamino]-methylene}-6-m-tolyl-4H-isoquinoline-1,3-dione]
3.78 µM | CC(=O)c1ccccc1-c1ccc2c(c1)C(=CNCc1ccc(O)c(O)c1)C(=O)NC2=O [Example 777, 6-(2-Acetyl-phenyl)-4-[(3,4-dihydroxy-benzylamino)-methylene]-4H-isoquinoline-1,3-dione]
17.7 µM | Cc1ncsc1C=Cc1ccc2c(c1)C(=CNc1ccc(N3CCN(C)CC3)cc1)C(=O)NC2=O [Example 681, 4-{[4-(4-Methyl-piperazin-1-yl)-phenylamino]-methylene}-6-[2-(4-methyl-thiazol-5-yl)-vinyl]-4H-isoquinoline-1,3-dione]
45 µM | CSc1ccc(-c2ccc3c(c2)C(=CNc2ccc(N4CCN(C)CC4)cc2)C(=O)NC3=O)cc1 [Example 700, 4-{[4-(4-Methyl-piperazin-1-yl)-phenylamino]-methylene}-6-(4-methylsulfanyl-phenyl)-4H-isoquinoline-1,3-dione]
32.3 µM | NS(=O)(=O)c1ccc(CNC=C2C(=O)NC(=O)c3ccc(-c4cccc5cccnc45)cc32)cc1 [Example 633, 4-{[(1,3-Dioxo-6-quinolin-8-yl-2,3-dihydro-1H-isoquinolin-4-ylidenemethyl)-amino]-methyl}-benzenesulfonamide]
41.7 µM | CCN(CC)CCOC=Cc1ccc2c(c1)C(=CNc1ccc(N3CCN(C)CC3)cc1)C(=O)NC2=O [Example 794, 6-[2-(2-Diethylamino-ethoxy)-vinyl]-4-{[4-(4-methyl-piperazin-1-yl)-phenylamino]-methylene}-4H-isoquinoline-1,3-dione]
15.5 µM | CN1CCN(c2ccc(NC=C3C(=O)NC(=O)c4ccc(C=CCc5ccccc5O)cc43)cc2)CC1 [Example 801, 6-[3-(2-Hydroxy-phenyl)-propenyl]-4-{[4-(4-methyl-piperazin-1-yl)-phenylamino]-methylene}-4H-isoquinoline-1,3-dione]
18.6 µM | N#CCc1ccc(NC=C2C(=O)NC(=O)c3ccc(C=Cc4ccccn4)cc32)cc1 [Example 648, (4-{[1,3-Dioxo-6-(2-pyridin-2-yl-vinyl)-2,3-dihydro-1H-isoquinolin-4-ylidenemethyl]-amino}-phenyl)-acetonitrile]
